Bridge positions count the residues as written; N and C are the ends. Square brackets hold non-standard residues; d marks the D form. Ends that are not written are not given here. COCH2 = acetyl group that carries the bridge; hCys = N[C@@H](CCS)C(=O)O; Orn = NCCC[C@H](N)C(=O)O; Dab = NCC[C@H](N)C(=O)O; Dap = NC[C@H](N)C(=O)O
T1: Recombinant Human FGFR1 alpha (IIIc) Fc Chimera Protein, CF (R&D systems, 658-FR-050) (human, UniProt P11362 22-376)
T1 construct: bought reagent; not shown: Fc of the bought chimera
T1 sequence (looked up): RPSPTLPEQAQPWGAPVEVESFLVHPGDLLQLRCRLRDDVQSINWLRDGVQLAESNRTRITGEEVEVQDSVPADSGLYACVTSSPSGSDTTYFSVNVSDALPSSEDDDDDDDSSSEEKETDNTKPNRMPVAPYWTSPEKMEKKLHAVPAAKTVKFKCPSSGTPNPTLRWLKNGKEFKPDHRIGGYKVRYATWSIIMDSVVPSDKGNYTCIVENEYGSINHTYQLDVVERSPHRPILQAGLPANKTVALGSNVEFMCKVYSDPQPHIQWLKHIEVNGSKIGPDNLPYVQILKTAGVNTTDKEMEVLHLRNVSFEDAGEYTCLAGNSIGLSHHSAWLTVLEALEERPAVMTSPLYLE


What follows are molecules tested on Recombinant Human FGFR1 alpha (IIIc) Fc Chimera Protein (assay: Binding affinity of enzymatically synthesized cyclic peptide to FGFR by ELISA). Conditions: luminescence signal at reaction concentration 10 nmol/L, SEQ ID NO: 39 standardized to 1, enzyme synthesis product.
How it was run: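 Graded A–D from luminescence at 10 nmol/L peptide, expressed relative to SEQ ID NO: 39 after subtracting wells lacking receptor. Read-out used anti-Myc antibody (2 h, RT) with chemiluminescent substrate, following 3 h RT binding of peptide to immobilized FGFR1α(IIIc)-Fc, 5 ng per well.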

Molecule | Evaluation result of binding affinity to FGFR
358 (NCWVQWFLSGHVVPFLVSLK(COCH2)S; thioether 2-20) [compound 358] | C (0.1 or more and less than 0.5)
359 (WCPWGDIHVVPFHK(COCH2)V; thioether 2-14) [compound 359] | C (0.1 or more and less than 0.5)

The remaining lines, values ahead:

Evaluation result of binding affinity to FGFR | Molecule
B (0.5 or more and less than 0.7) | 360 (DCWGWHREFVPFIK(COCH2)I; thioether 2-14) [compound 360]
C (0.1 or more and less than 0.5) | 361 (QCPWSTTQQVPFIK(COCH2)V; thioether 2-14) [compound 361]
C (0.1 or more and less than 0.5) | 362 (WCHYAPFWVLNEGQLK(COCH2)V; thioether 2-16) [compound 362]
C (0.1 or more and less than 0.5) | 363 (TCSILKHPWGAPFLVK(COCH2)T; thioether 2-16) [compound 363]
C (0.1 or more and less than 0.5) | 364 (WCQLRFQGHLAPFIIK(COCH2)S; thioether 2-16) [compound 364]
B (0.5 or more and less than 0.7) | 365 (NCWGYTYIIPFNYISK(COCH2)T; thioether 2-16) [compound 365]
C (0.1 or more and less than 0.5) | 366 (HCQFNIHPWGAPFLVK(COCH2)E; thioether 2-16) [compound 366]
C (0.1 or more and less than 0.5) | 367 (WCRTWLWFEIPFWYQK(COCH2)E; thioether 2-16) [compound 367]
C (0.1 or more and less than 0.5) | 368 (ECKVHLHPWGAPFWIK(COCH2)S; thioether 2-16) [compound 368]
C (0.1 or more and less than 0.5) | 369 (HASYERCIFHGHEAPFWVK(COCH2)V; thioether 7-19) [compound 369]
A (0.7 or more) | 370 (CYERLIFHGHEAPFWVK(COCH2)V; thioether 1-17) [compound 370]
A (0.7 or more) | 371 (CERLIFHGHEAPFWVK(COCH2)V; thioether 1-16) [compound 371]
C (0.1 or more and less than 0.5) | 372 (CRLIFHGHEAPFWVK(COCH2)V; thioether 1-15) [compound 372]
A (0.7 or more) | 373 (CERLIFHGHEAPFWVK(COCH2); thioether 1-16) [compound 373]

The molecules below were run against T1, Recombinant Human FGFR1 alpha (IIIc) Fc … (assay: SPR, FGFR1-Fc immobilized, 10 nmol/L peptide). Conditions: not given.
Description: A CM5 sensor chip (Cytiva, 29149603) was set in Biacore-T200 (manufactured by Cytiva) which is a surface plasmon resonance device, and an HBS-EP buffer (Cytiva, BR100826) was added as a running buffer at a flow rate of 10 μL/min to equilibrate the flow channel. Next, 70 μL of a mixed aqueous solution of 0.2 mol/L 1-(3-dimethylaminopropyl)-3-ethylcarbodiimide (EDC) and 0.05 mol/L N-hydroxysuccinimide (NHS) was added to activate the sensor chip. Then, Recombinant Human FGFR 1 alpha (IIIc) Fc Chimera Protein CF (R&D systems, 658-FR-050) prepared at 50 nmol/L in an Acetate 4.5 buffer (Cytiva, BR100350) was added thereto to perform immobilization at about 5000 RU. Thereafter, the blocking treatment was performed with an ethanolamine solution. In addition, in another flow channel of the same sensor chip, blocking treatment was performed immediately after activation without immobilizing FGFR.
A cyclic peptide diluted to 10 nmol/L using HBS-EP was added to each flow channel of the FGFR-immobilized sensor chip produced above at 25° C. for 10 minutes, then HBS-EP was allowed to flow as a running buffer for 30 minutes, and the binding of the cyclic peptide to FGFR was measured. Thereafter, a regeneration treatment of removing the bound cyclic peptide was performed by repeating the flow of a regeneration liquid in which sodium chloride powder was dissolved in Glysine 1.5 (Cytiva, BR100354) to a final concentration of 0.15 mol/L for 1 minute in each flow channel twice. The binding amount of the cyclic peptide was evaluated from the difference between the measured value of Biacore-T200 in the flow channel in which FGFR was immobilized and the measured value of Biacore-T200 in the flow channel in which FGFR was not immobilated, in a case where a 10 nmol/L cyclic peptide was allowed to flow.

binding amount (SPR, cyclic peptide molecules bound per one molecule of FGFR at 10 nmol/L peptide) | Molecule
≥ 0.7 moleculesofthecyclicpeptide/onemoleculeoffgfr | H[Dap]SYERLQFHGHEAPFRV[hCys]VKKK (bridge 2-19; not fully specified (residue 2, bridges); printed as H-(Dap(acetyl))-SYERLQFHGHEAPFRV-(Hcy)-VKKK, chemically synthesized) [SEQ ID NO: 381]
≥ 0.7 moleculesofthecyclicpeptide/onemoleculeoffgfr | H[Dab]SYERLQFHGHEAPFRV[hCys]VKKK (bridge 2-19; not fully specified (residue 2, bridges); printed as H-(Dab(acetyl))-SYERLQFHGHEAPFRV-(Hcy)-VKKK, chemically synthesized) [SEQ ID NO: 380]
≥ 0.7 moleculesofthecyclicpeptide/onemoleculeoffgfr | H[hCys]SYERLQFHGHEAPFRV[Dab]VKKK (bridge 2-19; not fully specified (residue 19, bridges); printed as H-(Hcy)-SYERLQFHGHEAPFRV-(Dab(acetyl))-VKKK, chemically synthesized) [SEQ ID NO: 376]
≥ 0.7 moleculesofthecyclicpeptide/onemoleculeoffgfr | HXSYERLQFHGHEAPFRVXVKKK (not fully specified; Orn(acetyl); Hcy; thioether ring (Orn(acetyl))-(Hcy), chemically synthesized) [SEQ ID NO: 379]
0.5 to 0.7 moleculesofthecyclicpeptide/onemoleculeoffgfr | Ac-HASYERLIFHGHEAPFWVCVKKK (bridge N-19; not fully specified; printed as (Ac)-HASYERLIFHGHEAPFWV-(C)-VKKK, chemically synthesized) [SEQ ID NO: 386]
0.1 to 0.5 moleculesofthecyclicpeptide/onemoleculeoffgfr | XSYERLIFHGHEAPFWVXVKKK (not fully specified; Orn(acetyl); Hcy; thioether ring (Orn(acetyl))-(Hcy), chemically synthesized) [SEQ ID NO: 390]
0.1 to 0.5 moleculesofthecyclicpeptide/onemoleculeoffgfr | XSYERLIFHGHEAPFWVXKKK (not fully specified; Orn(acetyl); Hcy; thioether ring (Orn(acetyl))-(Hcy), chemically synthesized) [SEQ ID NO: 385]
≥ 0.7 moleculesofthecyclicpeptide/onemoleculeoffgfr | HXSYERXIFHGHEAPFWVXVKKK (not fully specified; Hle (homoleucine); Orn(acetyl); Hcy; thioether ring (Orn(acetyl))-(Hcy), chemically synthesized) [SEQ ID NO: 388]
≥ 0.7 moleculesofthecyclicpeptide/onemoleculeoffgfr | H[hCys]SYERLQFHGHEAPFRVKVKKK (bridge 2-19; not fully specified (residue 19, bridges); printed as H-(Hcy)-SYERLQFHGHEAPFRV-(K(acetyl))-VKKK, chemically synthesized) [SEQ ID NO: 374]
≥ 0.7 moleculesofthecyclicpeptide/onemoleculeoffgfr | HKSYERLQFHGHEAPFRV[hCys]VKKK (bridge 2-19; not fully specified (residue 2, bridges); printed as H-(K(acetyl))-SYERLQFHGHEAPFRV-(Hcy)-VKKK, chemically synthesized) [SEQ ID NO: 378]
≥ 0.7 moleculesofthecyclicpeptide/onemoleculeoffgfr | HXSYERLIFHGHEAPFWVXKKK (not fully specified; Orn(acetyl); Hcy; thioether ring (Orn(acetyl))-(Hcy), chemically synthesized) [SEQ ID NO: 389]
≥ 0.7 moleculesofthecyclicpeptide/onemoleculeoffgfr | H[hCys]SYERLQFHGHEAPFRV[Dap]VKKK (bridge 2-19; not fully specified (residue 19, bridges); printed as H-(Hcy)-SYERLQFHGHEAPFRV-(Dap(acetyl))-VKKK, chemically synthesized) [SEQ ID NO: 377]
≥ 0.7 moleculesofthecyclicpeptide/onemoleculeoffgfr | H[hCys]SYERLQFHGHEAPFRV[Orn]VKKK (bridge 2-19; not fully specified (residue 19, bridges); printed as H-(Hcy)-SYERLQFHGHEAPFRV-(Orn(acetyl))-VKKK, chemically synthesized) [SEQ ID NO: 375]
≥ 0.7 moleculesofthecyclicpeptide/onemoleculeoffgfr | HXSYERLIFHGHEAPFWVXVKKK (not fully specified; meL (N-methyl leucine); Orn(acetyl); Hcy; thioether ring (Orn(acetyl))-(Hcy), chemically synthesized) [SEQ ID NO: 387]
≥ 0.7 moleculesofthecyclicpeptide/onemoleculeoffgfr | HXSYERLIFHGHEAPFWVXVKKK (not fully specified; Orn(acetyl); Hcy; thioether ring (Orn(acetyl))-(Hcy), chemically synthesized) [SEQ ID NO: 384]

From patent US20260008818A1, “CYCLIC PEPTIDE OR SALT THEREOF, AND USES THEREOF” (FUJIFILM Corporation, priority 2023, published 2026)
